Source: patent US12077501B2, “Compounds and compositions for intracellular delivery of agents” (ModernaTX, Inc., priority 2017, dated 2024)

Columns and labels:
hEPO expression [1] = experiment: hEPO expression in CD-1 mice compared with MC3; assay type: in vivo; settings: intravenous, 0.5 mpk, Table 7e
Text: (§1) In contrast, hEPO expression in rats induced by administration of a nanoparticle composition including a compound according to one of formulae (I), (Ia1)-(Ia6), (Ib), (II), (IIa), (III), and (IIIa) was substantially […] than that measured for MC3. […] Tables 7c and 7d show additional protein expressions and clearance data from compositions with various compounds disclosed herein as compared to with MC3. Tables 7e, 7f and 7g show hEPO expression data in CD-1 mice at a dose of 0.5 mpk.

[2] = Particle size and polydispersity index of nanoparticle compositions (Zetasizer Nano ZS); assay type: physicochemical
Procedure: A Zetasizer Nano ZS (Malvem Instruments Ltd, Malvem, Worcestershire, UK) can be used to determine the particle size, the polydispersity index (PDI) and the zeta potential of the nanoparticle compositions in 1×PBS in determining particle size and 15 mM PBS in determining zeta potential.

[3] = Lipid purity change after storage in EtOH for 96 h at 25 or 37 °C; assay type: physicochemical
Procedure: Nanoparticle compositions including a therapeutic and/or prophylactic agent can be optimized according to the selection of a compound according to one of formulae (I), (Ia1)-(Ia10), (Ib), (Ic), (Id), (Id1)-(Id10), (Ie), (Ie1)-(Ie6), (II), (IIa), (III), and (IIIa), the selection of additional lipids, the amount of each lipid in the lipid component, and the wt:wt ratio of the lipid component to the therapeutic and/or prophylactic agent, as described herein. Initial studies were performed to compare the delivery efficiency of nanoparticle compositions including various compounds according to one of formulae (I), (Ia1)-(Ia10), (Ib), (Ic), (Id), (Id1)-(Id10), (Ie), (Ie1)-(Ie6), (II), (IIa), (III), and (IIIa). The cationic lipid MC3 is a current standard in the art. Also determined was the stability of nanoparticles of the disclosure, i.e., the purity after storage in EtOH for 96h at 25° C. or 37° C. (Table Id).

[4] = Encapsulation efficiency of RNA (QUANT-IT RIBOGREEN RNA assay); assay type: physicochemical
Procedure: For nanoparticle compositions including an RNA, a QUANT-IT™ RIBOGREEN® RNA assay (Invitrogen Corporation Carlsbad, CA) can be used to evaluate the encapsulation of an RNA by the nanoparticle composition. The samples are diluted to a concentration of approximately 5 μg/mL in a TE buffer solution (10 mM Tris-HCl, 1 mM EDTA, pH 7.5). 50 μL of the diluted samples are transferred to a polystyrene 96 well plate and either 50 μL of TE buffer or 50 μL of a 2% Triton X-100 solution is added to the wells. The plate is incubated at a temperature of 37° C. for 15 minutes. The RIBOGREEN® reagent is diluted 1:100 in TE buffer, and 100 μL of this solution is added to each well. The fluorescence intensity can be measured using a fluorescence plate reader (Wallac Victor 1420 Multilablel Counter; Perkin Elmer, Waltham, MA) at an excitation wavelength of, for example, about 480 nm and an emission wavelength of, for example, about 520 nm. The fluorescence values of the reagent blank are subtracted from that of each of the samples and the percentage of free RNA is determined by dividing the fluorescence intensity of the intact sample (without addition of Triton X-100) by the fluorescence value of the disrupted sample (caused by the addition of Triton X-100).

[5] = Lipid clearance: % dose remaining in liver of CD-1 mice; assay type: in vivo; settings: intravenous, 0.5 mg/kg, CD-1 mouse, Table 8a
Text: as §1

[6] = pKa of nanoparticle compositions; assay type: physicochemical; settings: Table 1c
hEPO expression [7] = experiment: hEPO (miR126 + miR142) mRNA expression, Tables 8b-8e; assay type: in vivo; settings: Table 8b
[8] = Table 1c, nanoparticle compositions
[9] = Table 1d, Formulated with lipid:Chol:DOPE:PEG 1 40:38.5:20:1.5

Structure (SMILES)	AUC (p/s*h) CD-1 mice 0.5 mpk (hEPO expression [1])	PDI [2, 8]	Size (nm) [2, 8]	Lipid % change purity in EtOH, 25° C., 96 h [3]	Lipid % change purity in EtOH, 37° C., 96 h [3]	EE (%) [4, 8]	% Dose Remaining 24 hr [5]	pKa [6]	PDI [2, 9]	Size (nm) [2, 9]	EE (%) [4, 9]	AUC (hEPO expression [7])
CCCCCCCCCN(CCCCCCCCC)CCN(CCCCCCCCC)CC(=O)N1CCN(C(=O)CN(CCCCCCCCC)CCCC(=O)OCCCCC)CC1 [Compound 45, Pentyl 4-((2-(4-(N-(2-(dinonylamino)ethyl)-N-nonylglycyl)piperazin-1-yl)-2-oxoethyl)(nonyl)amino)butanoate]	6.98E+07 p/s*h	–	–	–	–	–	–	–	–	–	–	–
CCCCCCCCCN(CCCCCCCCC)CCN(CCCCCCCCC)CC(=O)N1CCN(C(=O)CN(CCCCCCCCC)CC(C)COC(=O)CCCCC)CC1 (stereo not drawn) [Compound 130, 3-((2-(4-(N-(2-(Dinonylamino)ethyl)-N-nonylglycyl)piperazin-1-yl)-2-oxoethyl)(nonyl)amino)-2-methylpropyl hexanoate]	–	0.23	84.9 nm	3.54%	4.46%	98.0%	2.33%	6.90	–	–	–	–
CCCCCCCCCN(CCCCCCCCC)CCN(CCCCCCCCC)CC(=O)N1CCN(C(=O)CN(CCCCCCCCC)CCCOC(=O)CC(C)CCC)CC1 (stereo not drawn) [Compound 131, 3-((2-(4-(N-(2-(Dinonylamino)ethyl)-N-nonylglycyl)piperazin-1-yl)-2-oxoethyl)(nonyl)amino)propyl 3-methylhexanoate]	–	0.17	85.4 nm	11.96%	12.43%	98.5%	80.27%	7.02	–	–	–	–
CCCCCCCCCN(CCCCCCCCC)CCN(CCCCCCCCC)CC(=O)N1CCC(CCN(CCCCCCCCC)CC(C)COC(=O)CCCCC)CC1 (stereo not drawn) [Compound 132, 3-((2-(1-(N-(2-(Dinonylamino)ethyl)-N-nonylglycyl)piperidin-4-yl)ethyl)(nonyl)amino)-2-methylpropyl hexanoate]	–	0.23	83.1 nm	1.84%	5.54%	98.6%	0.81%	6.49	–	–	–	–
CCCCCCCCCN(CCCCCCCCC)CCN(CCCCCCCCC)CC(=O)N1CCN(C(=O)CN(CCCCCCCCC)CCCC(=O)SCCCCC)CC1 [Compound 134, S-Pentyl 4-((2-(4-(N-(2-(dinonylamino)ethyl)-N-nonylglycyl)piperazin-1-yl)-2-oxoethyl)(nonyl)amino)butanethioate]	–	0.21	82.1 nm	1.60%	11.81%	96.7%	33.71%	6.85	–	–	–	–
CCCCCCCCCCCCN(CCCOC(=O)CCCCCCC)CC(=O)N1CCN(C(=O)CN(CCCCCCCCC)CCN(CCCCCCCCC)CCCCCCCCC)CC1 [Compound 135, 3-((2-(4-(N-(2-(Dinonylamino)ethyl)-N-nonylglycyl)piperazin-1-yl)-2-oxoethyl)(dodecyl)amino)propyl Octanoate]	–	0.22	81.1 nm	2.26%	4.09%	98.6%	0.16%	6.90	–	–	–	–
CCCCC/C=C\CCN(CC/C=C\CCCCC)CCN(CC/C=C\CCCCC)CC(=O)N1CCN(C(=O)CN(CCCCCCCCC)CCCCCCCCC)CC1 [Compound 136, 2-((2-(Di((Z)-non-3-en-1-yl)amino)ethyl)((Z)-non-3-en-1-yl)amino)-1-(4-(dinonylglycyl)piperazin-1-yl)ethan-1-one]	–	0.23	72.1 nm	−0.71%	0.77%	97.7%	56.18%	6.13	–	–	–	–
CCCCCC/C=C\CC(=O)OCCCN(CCCCCCCCCCCCCC)CC(=O)N1CCN(C(=O)CN(CCCCCCCCC)CCN(CCCCCCCCC)CCCCCCCCC)CC1 [Compound 137, 3-((2-(4-(N-(2-(Dinonylamino)ethyl)-N-nonylglycyl)piperazin-1-yl)-2-oxoethyl)(tetradecyl)amino)propyl (Z)-dec-3-enoate]	–	0.22	78.5 nm	0.36%	1.17%	98.8%	0.26%	6.93	–	–	–	–
CCCCC/C=C\CCN(CC/C=C\CCCCC)CCN(CC/C=C\CCCCC)CC(=O)N1CCN(C(=O)CN(CCCCCCCCC)CCCCCCCC(=O)OC)CC1 [Compound 139, Methyl 8-((2-(4-(N-(2-(Di((Z)-non-3-en-1-yl)amino)ethyl)-N—((Z)-non-3-en-1-yl)glycyl)piperazin-1-yl)-2-oxoethyl)(nonyl)amino)octanoate]	–	0.23	83.8 nm	0.67%	1.49%	94.8%	0.29%	6.15	–	–	–	–
CCCCCCCCCCCC(=O)N1CCN(C(=O)CN(CCCCCCCCC)CCN(CCCCCCCCC)CCCCCCCCC)CC1 [Compound 143, 1-(4-(N-(2-(Dinonylamino)ethyl)-N-nonylglycyl)piperazin-1-yl)dodecan-1-one]	–	0.21	93.7 nm	1.10%	1.80%	97.4%	38.63%	7.26	–	–	–	–
CCCCCCCCCN(CCCCCCCCC)CCN(CCCCCCCCC)CC(=O)N1CCN(C(=O)CCCC(=O)OCCCCCCC)CC1 [Compound 144, Heptyl 5-(4-(N-(2-(dinonylamino)ethyl)-N-nonylglycyl)piperazin-1-yl)-5-oxopentanoate]	–	0.19	83.3 nm	5.06%	7.63%	97.2%	3.25%	7.59	–	–	–	–
CCCCCCCCCN(CCCCCCCCC)CCN(CCCCCCCCC)CC(=O)N(C)CCCCN(C)C(=O)CN(CCCCCCCCC)CCCCCCCCC [Compound 159, 2-(dinonylamino)-N-(4-(2-((2-(dinonylamino)ethyl)(nonyl)amino)-N-methylacetamido)butyl)-N-methylacetamide]	–	–	–	–	–	–	–	–	0.12	76.5 nm	92.9%	6.56e+07 pg·h/mL
